From patent US6544991B2, “Compositions and methods for treating bacterial infections” (priority 2000, dated 2003)

How the values were obtained:
VRSA strains = experiment: MIC by agar dilution or microbroth dilution method (NCCLS), VRSA strains; format: cell-based, Staph. aureus; settings: VRSA strains (n = 10)
Protocol: (§1) Bacterial isolates were obtained from human infections. The isolates were maintained frozen in a liquid nitrogen freezer and plated on Trypticase Soy Agar (TSA) plates supplemented with 5% sheep blood. The quality control strain Staph. aureus 29213 was originally acquired from the American Type Culture Collection (Rockville, Md.).
(§2) MICs were determined by an agar dilution method or microbroth dilution method recommended by NCCLS. Synergy was assessed by agar dilution checker-board method. Minimal inhibitory concentrations (MICS) for each separate drug were determined. The fractional inhibitory concentration (FIC) values were calculated by the MIC of Drug A (e.g., sulbactam/ampicillin) and Drug B (e.g., linezolid or arbekacin) in combination/MIC of Drug A or B alone. The FIC index was determined according to the following formula: [formula]
In total, 48 MRSA strains were tested, including ten VRSA strains isolated from five different countries in the world, 33 MRSA strains isolated from ten Japanese university hospitals, and five MRSA type strains from Juntendo University, Department of Bacteriology, Tokyo, Japan.

MRSA strains = experiment: MIC by agar dilution or microbroth dilution method (NCCLS); format: cell-based, Staph. aureus
Protocol: as §1, §2

Staph. aureus 29213 = experiment: MIC, quality control strain; format: cell-based
Protocol: as §1, §2

[1] = strain JSCC 581 (lacks the mecA gene)
[2] = strain JSCC 590 (lacks the mecA gene)
[3] = strain ATCC 29213, control sample (Ex. 26)
[4] = strain ATCC29213, control sample (Ex. 37)

## CO/N=C(\C(=O)N[C@@H]1C(=O)N2C(C(=O)O)=CCS[C@H]12)c1csc(N)n1 [CZX, ceftizoxime]
VRSA strains
  MICs 50%: >128 mg/L
  MICs 90%: >128 mg/L
  MICs Range: >128 mg/L
MRSA strains; MRSA strains (n = 38)
  MICs 50%: >128 mg/L
  MICs 90%: >128 mg/L
MRSA strains; strain 85/2082
  MIC Values: >128 µg/mL
MRSA strains; strain 99.3700W
  MIC Values: >128 µg/mL
MRSA strains; strain 99.3759V
  MIC Values: >128 µg/mL
MRSA strains; strain AMC 11094
  MIC Values: >128 µg/mL
MRSA strains; strain BM12612(new)
  MIC Values: >128 µg/mL
MRSA strains; strain H1
  MIC Values: 2048 µg/mL
MRSA strains; strain HIP 5827
  MIC Values: >128 µg/mL
MRSA strains; strain HIP 5836
  MIC Values: >128 µg/mL
MRSA strains; strain HIP 6297
  MIC Values: >128 µg/mL
MRSA strains; strain HIP 7737
  MIC Values: >128 µg/mL
MRSA strains; strain JSCC 340
  MIC Values: >128 µg/mL
MRSA strains; strain JSCC 351
  MIC Values: >128 µg/mL
MRSA strains; strain JSCC 363
  MIC Values: >128 µg/mL
MRSA strains; strain JSCC 381
  MIC Values: >128 µg/mL
MRSA strains; strain JSCC 390
  MIC Values: >128 µg/mL
MRSA strains; strain JSCC 401
  MIC Values: >128 µg/mL
MRSA strains; strain JSCC 413
  MIC Values: >128 µg/mL
MRSA strains; strain JSCC 431
  MIC Values: >128 µg/mL
MRSA strains; strain JSCC 440
  MIC Values: >128 µg/mL
MRSA strains; strain JSCC 451
  MIC Values: >128 µg/mL
MRSA strains; strain JSCC 463
  MIC Values: >128 µg/mL
MRSA strains; strain JSCC 481
  MIC Values: >128 µg/mL
MRSA strains; strain JSCC 490
  MIC Values: >128 µg/mL
MRSA strains; strain JSCC 501
  MIC Values: >128 µg/mL
MRSA strains; strain JSCC 513
  MIC Values: >128 µg/mL
MRSA strains; strain JSCC 531
  MIC Values: >128 µg/mL
MRSA strains; strain JSCC 540
  MIC Values: >128 µg/mL
MRSA strains; strain JSCC 551
  MIC Values: >128 µg/mL
MRSA strains; strain JSCC 563
  MIC Values: 16 µg/mL
MRSA strains; [1]
  MIC Values: 16 µg/mL
MRSA strains; [2]
  MIC Values: 16 µg/mL
MRSA strains; strain JSCC 601
  MIC Values: >128 µg/mL
MRSA strains; strain JSCC 640
  MIC Values: >128 µg/mL
MRSA strains; strain JSCC 651
  MIC Values: >128 µg/mL
MRSA strains; strain JSCC 663
  MIC Values: >128 µg/mL
MRSA strains; strain JSCC 681
  MIC Values: >128 µg/mL
MRSA strains; strain JSCC 690
  MIC Values: >128 µg/mL
MRSA strains; strain JSCC 701
  MIC Values: >128 µg/mL
MRSA strains; strain JSCC 713
  MIC Values: >128 µg/mL
MRSA strains; strain JSCC 731
  MIC Values: >128 µg/mL
MRSA strains; strain JSCC 740
  MIC Values: >128 µg/mL
MRSA strains; strain JSCC 751
  MIC Values: >128 µg/mL
MRSA strains; strain JSCC 763
  MIC Values: >128 µg/mL
MRSA strains; strain JSCC 781
  MIC Values: >128 µg/mL
MRSA strains; strain JSCC 870
  MIC Values: >128 µg/mL
MRSA strains; strain LIM 2
  MIC Values: >128 µg/mL
MRSA strains; strain Mu 3
  MIC Values: >128 µg/mL
MRSA strains; strain Mu 50
  MIC Values: >128 µg/mL
MRSA strains; strain N315
  MIC Values: 64 µg/mL
MRSA strains; strain NCTC 10442
  MIC Values: >128 µg/mL
Staph. aureus 29213; [3]
  MIC Values: 8 µg/mL
Staph. aureus 29213; [4]
  MIC Values: 4 µg/mL

## Cc1onc(-c2ccccc2)c1C(=O)N[C@@H]1C(=O)N2[C@@H]1SC(C)(C)[C@@H]2C(=O)O [MPIPC, oxacillin]
MRSA strains; strain 85/2082
  MIC Values: 64 µg/mL
MRSA strains; strain HIP 6297
  MIC Values: 64 µg/mL
MRSA strains; strain JSCC 563
  MIC Values: 2 µg/mL
MRSA strains; [1]
  MIC Values: 1 µg/mL
MRSA strains; [2]
  MIC Values: 1 µg/mL
MRSA strains; strain JSCC 601
  MIC Values: 64 µg/mL
MRSA strains; strain N315
  MIC Values: 16 µg/mL
Staph. aureus 29213; [3]
  MIC Values: 0.25 µg/mL
Staph. aureus 29213; [4]
  MIC Values: 0.25 µg/mL
